This note sets out measurements from patent US8653049B2, “Normuramyl glycopeptide compounds” (priority 2008, dated 2014).

Where “and” joins values, the source holds several entries; their conditions need not be identical. Identical values can stand only once. Entries after “also recorded” stand apart in the source; their conditions may differ.

Data set [1] deals with NK sensitive K562 cell line. Description: NK cell cytotoxicity of human PBMC, 51Cr-release against K562. It counts as cell-based. The gist of the method: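 Healthy-donor PBMC effectors were tested in a 4 h 51Cr-release assay at effector:target 16:1, with or without compound at 10^−7 mol/ml. Cytotoxicity was renormalized to untreated controls set at 100%.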
Data set [2] has as its system r-hsp90 (Candida albicans hsp90) specific IgG antibodies. Description: Proteoliposome vaccine against C. albicans hsp90: antibody (humoral) response, ELISA. It counts as in vivo, BALB/c mice. The note with it: Experiment 12.2; liposomal compound (5%) + Ni-HSP90, boost day 14; FIG. 13. As for the experimental part: Proteoliposomes were prepared by coupling recombinant hsp90 antigen (r-hsp90, 6×HISTag) via a metal chelating lipid to liposomes containing muramyl glycopeptide derivatives as adjuvant component. BALB/c […] mice 4 to 5 weeks old (female 20±2 g, 5 animal per group) were immunized by the intradermal route either with 20 μg of free or liposomal r-hsp90 (volume of 60 μl) either with or without L18-norAbu-MDP and boosted 21 days later by the same composition of experimental vaccine. FCA was used as positive control r-hsp90. Liposomal vaccine composition 20 μg of rHSP90 antigen, 5% metallochelating lipid, 5% particular MT analogue, 90% phospolipids.
Blood samples were collected from the tail vein into heparinised capillary PCV tubes. After centrifugation, the upper part of the tube, containing […] blood serum, was cut off, thrown into […] diluting solution and thoroughly shaken. Thus, a basic dilution of 1:33 was obtained. The pre-diluted sera were kept at −20° C. Blood samples were collected before the first immunization, 2 weeks thereafter and subsequently at weekly intervals up to the 4th week after the second immunisation. Specific IgG antibodies in blood serum samples were determined by the standard indirect ELISA procedure. The data obtained were processed statistically using the non-parametric Mann-Whitney U-test.
Proteoliposomes with muramyl glycopeptide derivatives were prepared as described above, but the boost was carried out already after 14 days. The liposomal vaccine composition was as for Experiment Set 1: 20 μg of rHSP90 antigen, 5% metallochelating lipid, 5% particular MT analogue, 90% phospolipids.
Controls: Aluminum hydroxide (AlOH) and Freund complete adjuvans (FCA) were used as positive controls. PBS with empty liposomes was used as negative control (control). Humoral response was tested at day 14 after vaccination (post priming) and at day 20 after vaccination (post booster). Antibody titres were wer assayed by ELISA.
On the technique in general: In an ELISA, binding on a coated surface is turned into a signal by an enzyme label.

Data set [3] is described as follows: Survival after lethal irradiation (10 Gy). It counts as in vivo, mice (strain ICR). The note with it: 200 nmol s.c. 24 h before 10 Gy; FIG. 37. As for the experimental part: Preparations (200 nmol of active substance) were applied to mice (strain ICR, female, 3 months of age, 10 mice per group) by s.c. route 24 h before irradiation (radiation dose of 10 Gy from a ^60Co gamma-ray source at a dose rate of 0.285 Gy/min). PBS and empty liposome served as negative controls, free and liposomal muramyl dipeptide (MDP) served as positive controls.

For data set [4], the system named is granulocyte-macrophage progenitor cells (GM-CFC). Description: Colony stimulating activity (CSA) of serum on GM-CFC. It is filed as in vivo, mouse. The settings on record: liposomal compounds; FIG. 32. Here is the method: Determination of Colony stimulating activity (CSA) and co-stimulating activity (CoSA) in serum: Blood was taken at intervals from 5 to 48 h after injection of the test compounds, and the ability of the sera from treated mice to stimulate in vitro growth of colonies from granulocyte-macrophage progenitor cells (GM-CFC) was determined. CoSA was determined as the ability of tested compounds, sera of treated mice, or conditioned medium from cultures of adherent stromal cells to enhance the number of GM-CFC colonies induced by a sub-optimal concentration of rmIL-3 in the above-described GM-CFC assay. The concentration of rmIL-3 was adjusted to a value which yielded one third of the maximum number of colonies on a dose-dependent curve.

The subject of data set [5] is GM-CFC progenitors in bone marrow. Description: GM-CFC recovery, test compounds before sub-lethal irradiation. The note with it: s.c. 100 nmol 24 h before 6 Gy, day 13, FIGS. 33-35. It counts as in vivo, ICR/CD-1 mice. Here is the method:
Institite of Cancer Research (ICR/CD-1) mice (female, age of 3 months, 3-4 per group) were stimulated by s.c. administration of test compounds (volume of 200 μl, 100 nmol per dose) 24 h before sublethal γ-irradiation (6 Gy, ^60Co γray source Chisostat, Chirana Ltd., Czech Republic, at a dose of 0.285 Gy/min.). Mice were sacrified at day 13 and recovery of GM-CFC in femour was assayed by counting of colonies (CFC) formed after cultivation in medium. Non-irradiated mice were used as control for normal GM-CFC count in femour. PBS and empty liposomes were used as controls for spontaneous recovery. Liposomal MDP was used as reference standard.
The following parameters of hemopoiesis were evaluated: • a) Blood leukocyte counts and bone marrow cellularity. Blood leukocytes (samples of blood drawn from an incision of the tail vein) and nucleated cell elements of the femoral bone marrow (femoral diaphyses flushed with saline) were estimated by means of Coulter Counter (Model ZN, Coulter Electronics). • b) Colony-forming cells in spleen. Endogenous spleen colony-forming units (E-CFUs) were measured on day 9 post the whole-body irradiation with 6.5 Gy (5 mice per group) according to Till and McCulloch. • c) GM-CFC progenitors in bone marrow. Femoral bone marrow cells were obtained from mice by flushing the femour with sterile IMDM medium. Harvested cells were calculated and diluted to 1.5×10^5 cells/ml and plated in triplicate in a semisolid environment created by plasma clot (Iscovess modification of Dulbecco's medium, 20% of fetal calf serum, 10% of colony-stimulating factor, 10% of citrate plasma, and CaCl2 1.5 mg/ml). The cultures were incubated for 7 days at 37° C. in 5% CO2. Colonies of at least 50 cells were scored at 40× magnification.
Statistical significance between individual experimental groups of mice in hemopoietic parameters was calculated by one-way analysis of variance. The Newman-Keuls test for comparison of all pairs of columns and the Dunnett test for comparison of all columns with the control column were used in the analysis.

For data set [6] the following is noted: rabbits, liposomal preparations s.c. 100 nmol/kg, 3 rabbits per group; passes if below 1.1° C. The gist of the method: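 Pyrogenicity was tested in New Zealand albino rabbits (3 per group) given liposomal preparations at 100 nmol/kg s.c., with temperature taken at 1, 2, 3, 4, 6 and 24 h. Controls were empty liposomes, liposomal and free MDP (50.7 nmol/kg) and B30-norAbu-MDP. A pass required summed ΔTmax below 1.1 °C.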

The subject of the next data set is Salmonella enteritidis. Description: Stimulation of innate immunity against Salmonella Enteritidis. The settings on record: for protective effect / survival rate in S. Enteritidis infection: 0 or 1 case of death by day 12; for Day 6 Intest.: clear/infected/dead / Day 6 Liver: clear/infected/dead / Day 6 Lungs: clear/infected/dead / Day 6 Spleen: clear/infected/dead / Day 12 Intest.: clear/infected/dead / Day 12 Liver: clear/infected/dead / Day 12 Lungs: clear/infected/dead / Day 12 Spleen: clear/infected/dead: liposomal, 20 nmol per dose p.o. 72 and 24 h before infection (LD50), 5 mice.

Data set [7] relates to Friend leukemia virus (FLV). Description: Friend leukemia virus infection: survival, TER-119+ cells, spleen. The note with it: day 16; FIG. 24.
The subject of data set [8] is NK-sensitive YAC1 target cells. Description: NK cell-mediated cytotoxicity of spleen mononuclear cells, 51Cr-release against YAC1. The settings on record: FLV-inoculated mice, day 16, 18 h incubation with YAC1; FIG. 26.
In data set [9] the test system is Trichophyton mentagrophytes TM 179. Description: Adjuvant activity for hsp60 DNA vaccine against ringworm. It is filed as in vivo, guinea pigs. The settings on record: per animal. The arrangement: key: semi-quantitative 0 to +++ method (where U=ulceration) for evaluation of dermal reactions, i.e. pathological lesions; semi-quantitative 0 to +++ method (where U=ulceration) for evaluation of dermal reactions, i.e. pathological lesions; semi-quantitative 0 to +++ method (where U=ulceration) for evaluation of dermal reactions, i.e. pathological lesions; semi-quantitative 0 to +++ method (where U=ulceration) for evaluation of dermal reactions, i.e. pathological lesions; U=ulceration.

For the next data set, the system named is S. typhimurium. Description: Stimulation of innate immunity against Salmonella Typhimurium. It is filed as in vivo, BALB/c mice. The note with it: liposomal preparations. An excerpt: Test compounds at doses of 5, 10, 25, 50, 100 and 200 nmol per mouse were applied in., s.c., i.v., or p.o. 3 and 1 days before experimental infection (10 animals per group). Various organs (intestines, liver, spleen, lungs) were examined for the presence of salmonellae on day 30 post infection. Results were expressed as numbers of colony forming units (CFU) of S. typhimurium per 1 gram of tissue. Statistically significant differences in numbers of CFU between the individual experimental groups were calculated by one-way analysis of variance.

A further data set deals with C. albicans strain 2091. Description: Stimulation of innate immunity to Candida albicans infection, survival. The note with it: s.c. 24 h after i.v. infection, vs PBS control, FIG. 20.
Setting [10] is: group 1: 200 μg adjuvant at −48 h + 20 μg DNA.
The mark [11] stands for this setting: group 2: 200 μg adjuvant at −24 h + 20 μg DNA.
The mark [12] stands for this setting: group 3: 200 μg adjuvant at 0 h + 20 μg DNA.
Where [13] appears, read: group 4: 200 μg adjuvant at +24 h + 20 μg DNA.

In the case of `CCCCCCCCCCCCCCCCCC(=O)NCCCC[C@H](NC(=O)CC[C@@H](NC(=O)[C@H](CC)NC(=O)CO[C@H]1[C@H](O)[C@@H](CO)OC(O)[C@@H]1NC(C)=O)C(N)=O)C(=O)O` (stereo partly drawn) [Compound 32, N-[2-O-(2-Acetamido-2,3-dideoxy-α-D-glucopyranosid-3-yl)-glycoloyl]-L-α-aminobutanoyl-D-isoglutaminyl-L-lysine(stearoyl)], the “lag time to reach full NK stimulating activity” value in [1] (no vs 18 h pre-incubation) is listed as “most pronounced”. Moreover, the “dose response of NK cell activity” value in [1] (range 0.1 μM-100 μM, FIG. 28) is given as “negative dose response”. Moreover, the “antibody response to r-hsp90 proteoliposomes” value in data set [2] was “strong and comparable to AlOH”. Moreover, in data set [3], the “survival of lethally irradiated mice” value is “best compound; also recorded: best performance”. In data set [4], the “GM-CFC stimulating activity (CSA) in serum” value is reported as “substantially better”. Also, in data set [5], the “GM-CFC progenitor cells in bone marrow” value is given as “strongest effect”. Also, in [5] (listed as compound 32), the “GM-CFC progenitor cells in bone marrow” value was “best compound”. Besides, in data set [6], the “+ΔTmax (Sum of ΔTmax)” value was 0.5 °C. In the data set with Salmonella enteritidis, the “protective effect / survival rate in S. Enteritidis infection” value was “good protective effects”, the “Day 6 Intest.: clear/infected/dead” value is 5/0/0, the “Day 6 Liver: clear/infected/dead” value is recorded as 3/2/0 and the “Day 6 Lungs: clear/infected/dead” value is 4/1/0. Further, in the data set with Salmonella enteritidis, the “Day 6 Spleen: clear/infected/dead” value is on record as 3/2/0, the “Day 12 Intest.: clear/infected/dead” value is 2/3/0, the “Day 12 Liver: clear/infected/dead” value was 1/4/0 and the “Day 12 Lungs: clear/infected/dead” value was 4/1/0. Also, in the data set with Salmonella enteritidis, the “Day 12 Spleen: clear/infected/dead” value is 1/4/0. For the same molecule, in data set [7], the “clonal expansion of TER-119+ erythroleukaemia cells in spleen” value is on record as “dose-dependent, positive effect”. Further, the “NK cell activity (cell-mediated cytotoxicity of SMCs)” value in data set [8] was “stimulate NK cell functional activity”.

`CCCCCCCCCCCCCCC(CCCCCCCCCCCCCC)C(=O)OC[C@H]1OC(O)[C@H](NC(C)=O)[C@@H](OCC(=O)N[C@@H](CC)C(=O)N[C@H](CCC(=O)O)C(N)=O)[C@@H]1O` (some centres unmarked) [B30-norAbu-MDP]: the “Skin reaction Day 12” value in data set [9] (group 1: 200 μg adjuvant at −48 h + 20 μg DNA electroporation prime and boost) was “+ and ++”. Also, in [9] (setting [10]), the “Skin reaction Day 21” value was “+++ (2×) and ++ (2×)”; the “Skin reaction Day 28” value was “+”. Also, the “Skin reaction Day 12” value in data set [9] (group 2: 200 μg adjuvant at −24 h + 20 μg DNA electroporation prime and boost) was “+++ (2×) and ++”. In addition, in [9] (setting [11]), the “Skin reaction Day 21” value was “++ (2×) and + (2×)”; the “Skin reaction Day 28” value was “+ (2×) and 0”. In addition, the “Skin reaction Day 12” value in data set [9] (group 3: 200 μg adjuvant at 0 h + 20 μg DNA electroporation prime and boost) was “+++ and + (2×)”. Also, in [9] (setting [12]), the “Skin reaction Day 21” value is “+” and the “Skin reaction Day 28” value was 0. Also, the “Skin reaction Day 12” value in data set [9] (group 4: 200 μg adjuvant at +24 h + 20 μg DNA electroporation prime and boost) is “+++ and + (2×)”. In [9] (setting [13]), the “Skin reaction Day 21” value is on record as “++”; the “Skin reaction Day 28” value was “+ (2×) and 0 (2×)”. Besides, the “+ΔTmax (Sum of ΔTmax)” value in [6] stood at 0.5 °C. In addition, in the data set with Salmonella enteritidis, the “protective effect / survival rate in S. Enteritidis infection” value was “good protective effects”, the “Day 6 Intest.: clear/infected/dead” value is reported as 5/0/0, the “Day 6 Liver: clear/infected/dead” value is 4/1/0 and the “Day 6 Lungs: clear/infected/dead” value is recorded as 5/0/0. Besides, in the data set with Salmonella enteritidis, the “Day 6 Spleen: clear/infected/dead” value was 4/1/0, the “Day 12 Intest.: clear/infected/dead” value is 4/0/1, the “Day 12 Liver: clear/infected/dead” value is listed as 4/0/1 and the “Day 12 Lungs: clear/infected/dead” value is on record as 4/0/1. Further, in the data set on Salmonella enteritidis, the “Day 12 Spleen: clear/infected/dead” value was 4/0/1. Moreover, the “induction of immune responses in intestines” value in the data set with S. typhimurium is reported as “able to induce immune responses in intestines”. For the same molecule, the “survival time and survival rate in C. albicans infection” value in the data set on C. albicans strain 2091 (listed as free (non-liposomal) B30-norAbuMDP) was “lesser effect”. In the data set on C. albicans strain 2091 (listed as free B30-Nor-abuMDP), the “survival time and survival rate in C. albicans infection” value is given as “No effect”.
